“And” between values parts separate entries of the source, which are not always exact repeats. Equal values may be shown once. Where a SMILES comes first, the peptide text is derived from it. The star is where a group is joined. Biotin = O=C1N[C@H]2[C@H](CS[C@H]2CCCCC(=O)*)N1; Cbz = O=C(OCc1ccccc1)*; CHN2 = [N-]=[N+]=C*; Ahx = NCCCCCC(=O)O; CH2Cl = ClC*
Tests used:
SrtAΔN [1] = biological target: T1, SrtAΔN (Staphylococcus aureus, UniProt Q2FV99); experiment: biochemical; type: biochemical, S. aureus; details: for k1 (first-order rate constant ki for covalent modification of SrtAΔN) / ki/Ki (specificity constant): 37° C., means ± S.E.M., four determinations; for k1 (first-order rate constant ki for covalent modification of SrtAΔN): pH 7.5, inhibitor 25-200 μM; for ki/Ki (specificity constant): pH 7.5
T1 construct: The region of the SrtA gene lacking the N-terminal membrane domain was then PCR-amplified; made in house; host or cells: E. coli HMS174(DE3)pLysS
Experimental: Using methods described previously, SrtAΔN activity was measured with the internally quenched substrate 4([4-(dimethylamino)phenyl]azo)-benzoyl(Dabcyl)-[…][(2-aminoethyl)-amino]napthalenel-sulphonyl (Edans) (prepared by standard Fmoc solid-phase synthesis) on a CytoFluor 4000® multi-well fluorimeter (PerSeptive Biosystems, Foster City, Calif., U.S.A.). All SrtAAN assays were performed at 37° C. (in triplicate) in 50 mM Tris/HCI (pH 7.5) containing 150 mM NaCl, 5 mM CaCl2, 5 mM NH,-Gly3 and 5 mM dithiothreitol (SrtA buffer). Wells contained approx. 10 pM of purified SrtAoN and 50 pM of substrate, in a final volume of 200, ul. The Km and kcat values for the SrtAΔN-catalysed cleavage of the internally quenched sub-strate were calculated by fitting the data points directly into the Michaelis-Menten equation for substrate hydrolysis, using GraFit® software (Erithacus Software, Horley, Surrey, U.K.).
Data from the curves were fitted, using non-linear regression analysis, to the integrated rate equation [P]=PJ1-e “-Pp”). This equation represents a first-order rate process for the formation of product P as a function of time, where kapp is the apparent rate constant and P. represents the concentration of product at a time approaching infinity. Using five different concentrations for each inhibitor (25, 50, 100, 150 and 200/μM), the values kapp and P∞were determined and utilized to evaluate the apparent second-order rate constant A for the inactivation of SrtAΔN in the presence of the substrate. The individual kinetic constants ki and Ki were then evaluated for both inhibitors from a plot of 1/A versus inhibitor concentration [I] [28], and the specificity constant k;/K; was calculated.
Data from the progress curves for SrtΔN-catalysed hydrolysis of the internally quenched substrate Dabcyl-[…]Edans in the presence of five different concentrations of inhibitors I and II (25, 50, 100, 150 and 200, W) were fitted by non-linear regression analysis to the integrated rate equation [P]=P∞(1-e^−kaPPt). The P∞. and kapp values were determined and used to evaluate the apparent second-order rate constant A for inactivation of SrtΔN in the presence of substrate. The individual kinetic constants k and K were then evaluated from a plot of 1/A versus inhibitor concentration [I], and the specificity constant for each inhibitor (kiKi) calculated. Values represent the means ±S.E.M. for four determinations.

SrtAΔN [2] = biological target: T1, SrtAΔN; experiment: Affinity labelling of recombinant SrtAΔN, Western blot with streptavidin-alkaline phosphatase; type: binding, S. aureus
Experimental: (§1) To detect the affinity-labelled recombinant and wild-type SrtA, samples were analysed by Western-blot analysis [19,24-26]. Briefly, samples were treated with denaturing treatment buffer and the proteins separated by SDS/PAGE on 4-20% (w/v) linear gradient gels, followed by semi-dry transfer to a nitrocellulose membrane (Schleicher and Schiill, Dassel, Germany). After transfer, non-specific binding sites were quenched with a 3% (w/v) solution of BSA in 20 mM Tris/HCI (pH 7.4), containing 150 mM NaCl. To detect the biotin group, the membrane was incubated with a streptavidin-alkaline phosphatase conjugate (1:500). […] Bound antibody was detected with a goat anti-rabbit IgG alkaline phosphatase conjugate (1:20000).
In lane 3, the bound fraction eluted from the column with 10 mM imidazole (purified SrtAΔN) was also analysed.

[3] = biological target: recombinant sortase SrtAΔN (His6-tagged) (Staphylococcus aureus (Oxford strain)) (UniProt Q2FV99)
cathepsin B [4] = biological target: T2, cathepsin B (Homo sapiens, UniProt P07858); details: cathepsin B/Cbz-Phe-Phe-CH2Cl versus SrtAΔN/II
cathepsin B [5] = biological target: T2, cathepsin B; details: reference [30]; cited from earlier work
SrtB = SrtB (Staphylococcus aureus, UniProt Q2FZE3); type: binding; details: crude S. aureus extracts, iron not added to culture media
Experimental: as §1

wild-type SrtA = biological target: T3, wild-type SrtA (Staphylococcus aureus, UniProt Q2FV99); experiment: Affinity labelling of wild-type SrtA in crude S. aureus cell lysates, Western blot; type: binding; details: lysate probed with III; additional 24 kDa band, confirmed with antiserum
T3 construct: endogenous in cells; host or cells: S. aureus Oxford strain (ATCC 9144)
Experimental: For the disclosure of wild-type SrtA in S. aureus, a 50 ml overnight culture of the organism in LB broth was prepared. The bacterial cells were centrifuged at 3000 g for 15 min and the resulting pellet was washed in 5 ml of SrtA buffer. The washed bacteria were then resuspended in 1 ml of SrtA buffer containing 0.1 g of glass beads. The suspension was vortex-mixed continuously for 5 min followed by centrifugation at 1500 g for 15 min to remove the beads and unbroken cells. To 100 pl of purified SrtAΔN and the crude bacterial preparations, the inhibitor biotin-Ahx-Leu-Pro-Ala-Thr-CHN2 (III) was added (final concentration 50 pM) before incubation at 37° C. for 30 min.
To detect the affinity-labelled recombinant and wild-type SrtA, samples were analysed by Western-blot analysis. […] Bound antibody was detected with a goat anti-rabbit IgG alkaline phosphatase conjugate (1:20000).
Western-blotting experiments were performed with biotinAhx-Leu-Pro-Ala-Thr-CHN2 (III) to detect the presence of wildtype SrtA in crude cell lysates from S. aureus (Oxford strain; see FIG. 8B). […] In the duplicate lanes 3 and 4, which contained cell lysate “probed” with biotin-Ahx-Leu-Pro-Ala-Thr-CHN2 (III), the BCCP protein was detected along with an additional protein of apparent molecular mass 24 kDa. […]

CC(C)C[C@H](NC(=O)OCc1ccccc1)C(=O)N1CCC[C@H]1C(=O)N[C@@H](C)C(=O)N[C@H](C(=O)C=[N+]=[N-])[C@@H](C)O [Inhibitor I, Cbz-Leu-Pro-Ala-Thr-CHN2] (Cbz-LPAT-CHN2)
Ki (SrtAΔN [1]): 0.22 µM
k1 (first-order rate constant ki for covalent modification of SrtAΔN) (SrtAΔN [1]): 5.8×10^−3 min^−1 and 5.8 ± 0.6 × 10^−3 min^−1
ki/Ki (specificity constant) (SrtAΔN [1]): 2.2×10^4 M^−1 − min^−1 and 2.2 ± 0.2 × 10^4 M^−1 − min^−1

CC(C)C[C@H](NC(=O)OCc1ccccc1)C(=O)N1CCC[C@H]1C(=O)N[C@@H](C)C(=O)N[C@H](C(=O)CCl)[C@@H](C)O [Inhibitor II, Cbz-Leu-Pro-Ala-Thr-CH2Cl] (Cbz-LPAT-CH2Cl)
Ki (SrtAΔN [1]): 0.21 µM
k1 (first-order rate constant ki for covalent modification of SrtAΔN) (SrtAΔN [1]): 1.1×10^−2 min^−1 and 1.1 ± 0.1 × 10^−2 min^−1
ki/Ki (specificity constant) (SrtAΔN [1]): 5.3×10^4 M^−1 − min^−1 and 5.3 ± 0.6 × 10^4 M^−1 − min^−1
covalently modifies SrtAΔN more rapidly than peptidyl-diazomethane I (by ki) (SrtAΔN [1]; II versus I): approx. 2 fold
inactivates SrtAΔN more rapidly than analogous diazomethane sequence I (by specificity constants) (SrtAΔN [1]; II versus I): approx. 2 fold

O=C(O)c1cc[c]([Hg][OH])cc1 [pHMB, reference compound]
effect of pre-treatment on SrtAΔN labelling by III (SrtAΔN [2]; purified SrtAΔN pre-treated with thiol-directed inhibitor before probing with III): complete diminution of SrtAΔN labelling

Cbz-Leu-Pro-Ala-Thr-CH2Cl (II), peptidyl-chloromethane inhibitor (peptide)
ki (first-order rate constant of inactivation) [3]: 0.011 min⁻¹
ki/Ki (specificity constant) [3]: 883 M⁻¹ s⁻¹

Cbz-Leu-Pro-Ala-Thr-CHN2 (I), peptidyl-diazomethane inhibitor (peptide)
ki (first-order rate constant of inactivation) [3]: 0.0058 min⁻¹
ki/Ki (specificity constant) [3]: 367 M⁻¹ s⁻¹

Cbz-Phe-Phe-CH,Cl
ki greater than irreversible modification of SrtAΔN by peptidyl-chloromethane II (cathepsin B [4]): approx. 1000 fold
ki for alkylation of the active-site cysteine residue of cathepsin B (cathepsin B [5]): 12.5 min⁻¹

{Biotin-Ahx}-LPAT-CHN2 [Inhibitor III]
selectivity of labelling, SrtA versus SrtB (SrtB): selectively disclosed wild-type SrtA, but not SrtB
nature of binding of biotinylated inhibitor to SrtAΔN (SrtAΔN [2]; 50 μM, 37° C., 30 min, approx. 30 kDa band labelled in crude E. coli lysate and purified fraction): active-site-directed
detection of wild-type SrtA in crude S. aureus lysate (wild-type SrtA): affinity-labelled SrtA

— US20040230033A1, “Substrate-derived affinity labels, and uses thereof” (priority 2003, published 2004)
